Among the test systems are HT29 colon; MDA-MB-231 breast; UACC-62 melanoma; RXF 393 renal; NCI-H23 lung; SN12C renal; HCT-15 colon; MDA-MB-435; DU-145 prostate; T-47D breast; SR leukemia; HOP-92 NSCLC; PC-3 prostate; ACHN renal; NCI-H460 lung; NCI-H522 lung; U251 CNS; K-562 leukemia; SNB-19 CNS; SK-MEL-2 melanoma.
What all share (experiment): inhibition of tumour cell growth, NCI panel, 48 h

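Where inhibition never reached the appropriate level, the endpoint shown equals the highest concentration tested. Otherwise, values were interpolated linearly from a five-concentration, 48-hour dose response in 96-well plates. Definition used: TGI = concentration required for complete inhibition of growth.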

With `COc1ccc(C2=C(OC(C)=O)c3cccn3-c3ccccc3S2)cc1`, the TGI was above 10 µM with HT29 colon; above 10 µM with MDA-MB-231 breast; above 10 µM in the assay with UACC-62 melanoma; 6.44 µM in the assay with RXF 393 renal; 7.73 µM with NCI-H23 lung; above 10 µM in the assay on SN12C renal. Besides, the TGI is above 10 µM in the assay on HCT-15 colon; 0.877 µM in the assay on MDA-MB-435; above 10 µM with DU-145 prostate; above 10 µM in the assay with T-47D breast; above 10 µM in the assay with SR leukemia; above 10 µM in the assay on HOP-92 NSCLC. The compound also yielded a TGI in the assay with PC-3 prostate above 10 µM.
With `CC(=O)OC1CC(OC2C(O)CC(OC3C(O)CC(OC4CCC5(C)C(CCC6C5CC(O)C5(C)C(C7=CC(=O)OC7)CCC65O)C4)OC3C)OC2C)OC(C)C1O` (configuration not stated) (tested in a mixture with another compound), the TGI worked out at 0.0954 µM in the assay with HT29 colon; 0.518 µM with MDA-MB-231 breast; 0.0818 µM in the assay on ACHN renal; 0.0368 µM in the assay on NCI-H460 lung; 0.128 µM in the assay on UACC-62 melanoma; 0.0275 µM in the assay on NCI-H522 lung. For the same compound, the TGI stood at 0.0812 µM in the assay on RXF 393 renal; 0.0346 µM with NCI-H23 lung; 0.107 µM with HCT-15 colon; 0.357 µM in the assay with MDA-MB-435; 0.0801 µM with U251 CNS; 0.0377 µM in the assay with DU-145 prostate. Besides, the TGI in the assay on K-562 leukemia is 0.0685 µM; with SNB-19 CNS it was 0.458 µM; in the assay with T-47D breast, 0.41 µM; with SR leukemia it was above 100 µM; with SK-MEL-2 melanoma it was 0.207 µM; in the assay on HOP-92 NSCLC, 0.182 µM. Moreover, the TGI in the assay on PC-3 prostate came out at 0.123 µM.
Turning to `CC(C)CCNC(=O)c1ccc(CNC(=O)/C=C/c2ccc(-c3ccccc3[N+](=O)[O-])o2)cc1`, the TGI in the assay with MDA-MB-231 breast, with ACHN renal, in the assay on NCI-H460 lung, in the assay with UACC-62 melanoma, in the assay with RXF 393 renal and in the assay on NCI-H23 lung was above 100 µM in each case. For the same compound, the TGI in the assay with SN12C renal, with HCT-15 colon, with MDA-MB-435, in the assay on U251 CNS, in the assay with DU-145 prostate and in the assay on K-562 leukemia was above 100 µM in each case. Also, the TGI with SNB-19 CNS was above 100 µM; in the assay on T-47D breast, 63.5 µM; with SR leukemia, above 100 µM; with SK-MEL-2 melanoma it was above 100 µM; in the assay on PC-3 prostate, above 100 µM.
With `COc1cc(Cn2c3c(c4cc(O)ccc42)C(=O)c2ccccc2C3=O)cc(OC)c1`, the TGI was determined as 16.2 µM in the assay with HT29 colon; 23.6 µM in the assay with MDA-MB-231 breast; 7.61 µM with ACHN renal; 32.9 µM in the assay with NCI-H460 lung; 7.64 µM with UACC-62 melanoma; 12.5 µM with NCI-H522 lung. Also, the TGI with RXF 393 renal is 35.5 µM; in the assay on NCI-H23 lung it was 32.2 µM; in the assay on SN12C renal, 42.2 µM; in the assay on HCT-15 colon it was above 100 µM; in the assay with MDA-MB-435, above 100 µM; in the assay on U251 CNS, 18.6 µM. Besides, the TGI in the assay on DU-145 prostate is 60.6 µM; in the assay with SNB-19 CNS, 25.4 µM; with T-47D breast, 32.1 µM; in the assay with SR leukemia, 25.2 µM; in the assay on SK-MEL-2 melanoma, above 100 µM; with HOP-92 NSCLC it was 19.7 µM. The TGI in the assay with PC-3 prostate is 11.8 µM.
As to `Cn1cc(-c2ccc(CCOC3CCCCO3)cc2)c2c(C#N)cccc21` (configuration not stated), the TGI with HT29 colon is 45.3 µM; in the assay on MDA-MB-231 breast, above 100 µM; in the assay with NCI-H460 lung it was above 100 µM; in the assay with UACC-62 melanoma it was above 100 µM; in the assay with NCI-H522 lung, above 100 µM; in the assay on RXF 393 renal, above 100 µM. Further, the TGI with NCI-H23 lung, in the assay with SN12C renal, in the assay on HCT-15 colon, in the assay with MDA-MB-435, with U251 CNS and in the assay on DU-145 prostate was above 100 µM throughout. Further, the TGI in the assay with K-562 leukemia, in the assay on SNB-19 CNS, in the assay with T-47D breast, in the assay with SR leukemia, in the assay on SK-MEL-2 melanoma and in the assay on HOP-92 NSCLC was above 100 µM throughout. Further, in the assay on PC-3 prostate, the TGI was above 100 µM.
On to `COC(=O)c1ccccc1CC1Cc2cc3c(cc2C1)CCC3`, for which the TGI in the assay with HT29 colon was above 100 µM; in the assay on MDA-MB-231 breast, above 100 µM; with ACHN renal it was above 100 µM; in the assay with NCI-H460 lung it was above 100 µM; in the assay with NCI-H522 lung, 91.6 µM; in the assay on RXF 393 renal it was 63.6 µM. The TGI with NCI-H23 lung is above 100 µM; with SN12C renal it was above 100 µM; in the assay on HCT-15 colon it was above 100 µM; with MDA-MB-435 it was 84.2 µM; with U251 CNS, above 100 µM; with DU-145 prostate, above 100 µM. For the same compound, the TGI in the assay with K-562 leukemia is 61.1 µM; with SNB-19 CNS it was above 100 µM; with T-47D breast, above 100 µM; with SR leukemia, 29.2 µM; in the assay on SK-MEL-2 melanoma it was 43.9 µM; with HOP-92 NSCLC it was 71.2 µM. In the assay on PC-3 prostate, this compound had a TGI above 100 µM.
Take `C=CCSc1nn(CC=C)cc2ncnc1-2`: the TGI in the assay on HT29 colon, in the assay on MDA-MB-231 breast, in the assay with ACHN renal, with NCI-H460 lung, in the assay with UACC-62 melanoma and with RXF 393 renal was above 100 µM in each case. Further, the TGI in the assay with NCI-H23 lung, in the assay on SN12C renal, in the assay with HCT-15 colon, with MDA-MB-435, in the assay on U251 CNS and in the assay with DU-145 prostate was above 100 µM each time. The TGI in the assay with K-562 leukemia, with SNB-19 CNS, in the assay on T-47D breast, in the assay with SR leukemia, in the assay on SK-MEL-2 melanoma and with PC-3 prostate was above 100 µM each time.
As for `CC(O[Si](C)(C)C(C)(C)C)[C@H](NC(=O)OCC(Cl)(Cl)Cl)C(=O)O` (some centres not stated), the TGI with HT29 colon, in the assay on MDA-MB-231 breast, in the assay on ACHN renal, in the assay on NCI-H460 lung, with UACC-62 melanoma and with NCI-H522 lung was above 100 µM throughout. The TGI with RXF 393 renal, with NCI-H23 lung, in the assay on SN12C renal, with HCT-15 colon, with MDA-MB-435 and in the assay on U251 CNS was above 100 µM in each case. Moreover, the TGI in the assay with DU-145 prostate, in the assay on K-562 leukemia, in the assay on SNB-19 CNS, in the assay with T-47D breast, with SR leukemia and in the assay with PC-3 prostate was above 100 µM throughout.

(Values after PubChem BioAssay (NCI).)
